Laboratory results as given in US11111233B2, “Amino pyrimidine compound for inhibiting protein tyrosine kinase activity” (Shenzhen TargetRx, Inc., priority 2016, dated 2021).
Where two headings read alike, the source gives them in different places.

Tests used:
[1] = test system: Skin cancer cell line A431 (WT); experiment: Cytotoxicity test (MTS cell viability), A431; type: cell-based
[2] = test system: lung cancer cells HCC827 (Del19); experiment: Cytotoxicity test (MTS cell viability), HCC827; type: cell-based
WT EGFR = WT EGFR (Homo sapiens (Human), UniProt P00533); experiment: Kinase inhibition assay (HTRF), WT EGFR; type: biochemical; conditions: HTRF Kinase TK kit, 10 min pre-incubation, 20 min reaction
EGFR [L858R/T790M] = EGFR [L858R/T790M] (Homo sapiens (Human), UniProt P00533, L858R/T790M); experiment: Kinase inhibition assay (HTRF), EGFR [L858R/T790M]; type: biochemical; conditions: HTRF Kinase TK kit, 10 min pre-incubation, 20 min reaction; read-out: EGFR(L858R/T790M) IC50
[3] = Homo sapiens, A-431, MTS, 72 hours, read-out: A431 (WT) IC50
[4] = Homo sapiens, HCC827, MTS, 72 hours, read-out: HCC827 (Del19) IC50
[5] = Homo sapiens, A-431, 72 h, read-out: A431 (WT) IC50(nM)
[6] = Homo sapiens, HCC827, 72 h, read-out: HCC827 (Del19) IC50(nM)

EGFR [L858R/T790M], sequence (P00533 25-1210 T790M/L858R): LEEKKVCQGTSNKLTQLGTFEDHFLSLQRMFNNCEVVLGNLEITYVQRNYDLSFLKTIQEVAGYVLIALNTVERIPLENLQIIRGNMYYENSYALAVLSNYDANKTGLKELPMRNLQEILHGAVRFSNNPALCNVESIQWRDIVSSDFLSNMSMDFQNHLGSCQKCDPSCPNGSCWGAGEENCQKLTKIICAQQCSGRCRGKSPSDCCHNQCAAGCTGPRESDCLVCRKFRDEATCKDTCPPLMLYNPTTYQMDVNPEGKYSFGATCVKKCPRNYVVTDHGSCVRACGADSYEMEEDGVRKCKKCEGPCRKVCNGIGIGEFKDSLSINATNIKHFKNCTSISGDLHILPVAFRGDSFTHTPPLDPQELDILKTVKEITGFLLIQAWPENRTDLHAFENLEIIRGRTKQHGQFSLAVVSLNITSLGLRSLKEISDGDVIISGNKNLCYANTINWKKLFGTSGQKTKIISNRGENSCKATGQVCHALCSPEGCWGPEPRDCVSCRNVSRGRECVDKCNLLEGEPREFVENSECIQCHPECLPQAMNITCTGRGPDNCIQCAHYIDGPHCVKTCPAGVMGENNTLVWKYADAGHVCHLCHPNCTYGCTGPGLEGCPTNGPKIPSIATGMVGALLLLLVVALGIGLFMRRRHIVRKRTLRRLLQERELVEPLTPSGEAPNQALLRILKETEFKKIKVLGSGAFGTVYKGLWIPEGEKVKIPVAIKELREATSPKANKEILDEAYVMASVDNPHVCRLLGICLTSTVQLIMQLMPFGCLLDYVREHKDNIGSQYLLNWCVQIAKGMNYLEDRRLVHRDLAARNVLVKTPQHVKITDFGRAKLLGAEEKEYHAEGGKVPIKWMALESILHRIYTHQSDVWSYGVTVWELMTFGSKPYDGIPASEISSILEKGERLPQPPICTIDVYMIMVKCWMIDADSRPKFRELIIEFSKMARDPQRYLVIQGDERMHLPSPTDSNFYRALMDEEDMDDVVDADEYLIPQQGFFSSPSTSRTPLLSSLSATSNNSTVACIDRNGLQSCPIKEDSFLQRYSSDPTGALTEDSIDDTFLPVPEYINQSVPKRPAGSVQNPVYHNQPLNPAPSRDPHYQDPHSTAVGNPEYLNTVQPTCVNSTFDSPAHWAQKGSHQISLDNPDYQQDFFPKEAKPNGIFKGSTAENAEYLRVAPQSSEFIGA
WT EGFR, sequence (P00533 25-1210): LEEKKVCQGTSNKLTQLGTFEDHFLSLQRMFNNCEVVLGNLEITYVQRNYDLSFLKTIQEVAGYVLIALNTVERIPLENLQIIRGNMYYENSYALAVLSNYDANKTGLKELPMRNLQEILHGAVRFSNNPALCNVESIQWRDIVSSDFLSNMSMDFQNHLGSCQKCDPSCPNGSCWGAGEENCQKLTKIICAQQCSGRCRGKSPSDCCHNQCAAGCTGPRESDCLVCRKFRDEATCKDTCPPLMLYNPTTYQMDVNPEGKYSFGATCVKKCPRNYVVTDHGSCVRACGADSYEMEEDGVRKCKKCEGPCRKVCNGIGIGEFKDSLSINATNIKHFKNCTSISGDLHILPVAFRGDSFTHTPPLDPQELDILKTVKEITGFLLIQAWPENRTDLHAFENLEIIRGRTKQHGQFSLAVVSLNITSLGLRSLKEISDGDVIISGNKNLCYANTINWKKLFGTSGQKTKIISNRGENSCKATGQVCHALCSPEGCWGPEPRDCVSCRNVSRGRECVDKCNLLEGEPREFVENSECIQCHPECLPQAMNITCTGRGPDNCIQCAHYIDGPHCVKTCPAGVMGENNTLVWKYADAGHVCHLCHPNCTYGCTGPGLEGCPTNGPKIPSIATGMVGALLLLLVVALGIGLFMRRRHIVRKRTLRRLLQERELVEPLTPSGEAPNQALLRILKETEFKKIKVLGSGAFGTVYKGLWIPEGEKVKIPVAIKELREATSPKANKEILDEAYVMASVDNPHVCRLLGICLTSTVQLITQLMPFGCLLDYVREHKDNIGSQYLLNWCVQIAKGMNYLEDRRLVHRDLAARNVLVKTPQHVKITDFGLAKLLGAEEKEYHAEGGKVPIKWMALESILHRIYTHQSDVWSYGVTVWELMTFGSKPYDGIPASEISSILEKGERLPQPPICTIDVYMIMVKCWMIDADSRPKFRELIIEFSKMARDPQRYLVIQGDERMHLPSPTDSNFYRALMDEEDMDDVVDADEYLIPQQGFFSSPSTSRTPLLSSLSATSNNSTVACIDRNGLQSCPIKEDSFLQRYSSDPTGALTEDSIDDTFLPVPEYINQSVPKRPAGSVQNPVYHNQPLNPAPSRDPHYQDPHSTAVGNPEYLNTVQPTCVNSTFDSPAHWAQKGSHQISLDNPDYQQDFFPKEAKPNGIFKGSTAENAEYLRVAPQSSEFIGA

Row | IC50 (WT EGFR) [nM] | IC50 (EGFR [L858R/T790M]) [nM] | Compound | IC50 [1, 3] [nM] | also measured
1 | 1 to 50 | < 1 | C=CC(=O)Nc1cc(Nc2ncc(F)c(-c3cc(F)c4nc(C)c(C(C)C)n4c3)n2)c(OC)cc1N(C)CCN(C)C [Example 34, N-(2-((2-(dimethylamino)ethyl)(methyl)amino)-5-((5-fluoro-4-(8-fluoro-3-isopropyl-2-methylimidazo[1,2-a]pyridine-6-yl)pyrimidin-2-yl)amino)-4-methoxyphenyl)acrylamide] | > 1000 | IC50 [2, 4]: 10 to 100 nM
2 | 1 to 50 | < 1 | C=CC(=O)N(C)c1cc(Nc2nccc(-c3cc(F)c4nc(C)n(C(C)C)c4c3)n2)c(OC)cc1N(C)CCN(C)C [Example 68, N-(2-((2-(dimethylamino)ethyl)(methyl)amino)-5-((4-(4-fluoro-1-isopropyl-2-methyl-1H-benzo[d]imidazol-6-yl)pyrimidin-2-yl)amino)-4-methoxyphenyl)-N-methylacrylamide] | > 1000 | IC50 [2, 4]: < 10 nM
3 | 1 to 50 | < 1 | C=CC(=O)Nc1cc(Nc2nccc(-c3ccc4cnn(C(C)C)c4c3)n2)c(OC)cc1N(C)CCN(C)C [Example 27, N-(2-((2-(dimethylamino)ethyl)(methyl)amino)-5-((4-(1-isopropyl-1H-indazole-6-yl)pyrimidin-2-yl)amino)-4-methoxyphenyl)acrylamide] | 400 to 1000 | IC50 [2, 4]: 10 to 100 nM
4 | 1 to 50 | < 1 | C=CC(=O)Nc1cc(Nc2nccc(-c3cc(F)c4nc(OCC)n(C(C)C)c4c3)n2)c(OC)cc1N(C)CCN(C)C [Example 62, N-(2-((2-(dimethylamino)ethyl)(methyl)amino)-5-((4-(2-ethoxy-4-fluoro-1-isopropyl-1H-benzo[d]imidazol-6-yl)pyrimidin-2-yl)amino)-4-methoxyphenyl)acrylamide] | > 1000 | IC50 [2, 4]: 10 to 100 nM
5 | < 1 | < 1 | C=CC(=O)Nc1cc(Nc2nccc(-c3ccc4nn(C)c(C(C)C)c4c3)n2)c(OC)cc1N(C)CCN(C)C [Example 42, N-(2-((2-(dimethylamino)ethyl)(methyl)amino)-5-((4-(3-isopropyl-2-methyl-2H-indazole-5-yl)pyrimidin-2-yl)amino)-4-methoxyphenyl)acrylamide] | 100 to 400 | IC50 [2, 4]: < 10 nM
6 | 1 to 50 | < 1 | C=CC(=O)Nc1cc(Nc2nccc(-c3cc(F)c4nc(SC)n(C(C)C)c4c3)n2)c(OC)cc1N(C)CCN(C)C [Example 63, N-(2-((2-(dimethylamino)ethyl)(methyl)amino)-5-((4-(4-fluoro-1-isopropyl-2-(methylthio)-1H-benzo[d]imidazol-6-yl)pyrimidin-2-yl)amino)-4-methoxyphenyl)acrylamide] | > 1000 | IC50 [2, 4]: 10 to 100 nM
7 | 1 to 50 | < 1 | C=CC(=O)Nc1cc(Nc2ncc(C(F)(F)F)c(-c3cc(F)c4nc(C)n(C(C)C)c4c3)n2)c(OC)cc1N(C)CCN(C)C [Example 4, N-(2-((2-(dimethylamino)ethyl)(methyl)amino)-5-((5-trifluoromethyl-4-(4-fluoro-1-isopropyl-2-methyl-1H-benzo[d]imidazole-6-yl)pyrimidin-2-yl)amino)-4-methoxyphenyl)acrylamide] | – | –
8 | 1 to 50 | 1 to 50 | C=CC(=O)Nc1cc(Nc2nccc(-c3ccc4nc(C(F)(F)F)n(C(C)C)c4c3)n2)c(OC)cc1N(C)CCN(C)C [Example 37, N-(2-((2-(dimethylamino)ethyl)(methyl)amino)-5-((4-(1-isopropyl-2-(trifluoromethyl)-1H-benzo[d]imidazole-6-yl)pyrimidin-2-yl)amino)-4-methoxyphenyl)acrylamide] | – | –
9 | 1 to 50 | < 1 | C=CC(=O)Nc1cc(Nc2nccc(-c3cc(F)c4nc5n(c4c3)C(C)(C)CC5)n2)c(OC)cc1N(C)CCN(C)C [Example 5, N-(2-((2-(dimethylamino)ethyl)(methyl)amino)-5-((4-(5-fluoro-1,1-dimethyl-2,3-dihydro-1H-benzo[d]imidazole[1,2-a]pyrrol-6-yl)pyrimidin-2-yl)amino)-4-methoxyphenyl)acryl amide] | – | –
10 | 1 to 50 | < 1 | C=CC(=O)Nc1cc(Nc2nccc(-c3ccc4ncn(C(C)C)c4c3)n2)c(OC)cc1N(C)CCN(C)C [Example 36, N-(2-((2-(dimethylamino)ethyl)(methyl)amino)-5-((4-(1-isopropyl-1H-benzo[d]imidazole-6-yl)pyrimidin-2-yl)amino)-4-methoxyphenyl)acrylamide] | – | –
11 | 1 to 50 | < 1 | C=CC(=O)Nc1cc(Nc2ncc(C#N)c(-c3cc(F)c4nc(C)n(C(C)C)c4c3)n2)c(OC)cc1N(C)CCN(C)C [Example 18, N-(2-((2-(dimethylamino)ethyl)(methyl)amino)-5-((5-cyano-4-(4-fluoro-1-isopropyl-2-methyl-1H-benzo[d]imidazole-6-yl)pyrimidin-2-yl)amino)-4-methoxyphenyl)acrylamide] | – | –
12 | 1 to 50 | < 1 | C=CC(=O)Nc1cc(Nc2ncc(F)c(-c3cc(F)c4nc(C)n(C(C)C)c4c3)n2)c(OC)cc1N(C)CCN(C)C [Example 19, N-(2-((2-(dimethylamino)ethyl)(methyl)amino)-5-((5-fluoro-4-(4-fluoro-1-isopropyl-2-methyl-1H-benzo[d]imidazole-6-yl)pyrimidin-2-yl)amino)-4-methoxyphenyl)acrylamide] | – | –

Further lines, the compound ahead of its results:

Row | Compound | IC50 (WT EGFR) [nM] | IC50 (EGFR [L858R/T790M]) [nM] | IC50 [1, 3] [nM] | also measured
13 | C=CC(=O)Nc1cc(Nc2nccc(-c3cc(F)c4nc(C)n(C(C)C)c4c3)n2)c(OC)cc1OCCN(C)C [Example 12, N-(2-(2-(dimethylamino)ethyl)(oxy)-5-((4-(4-fluoro-1-isopropyl-2-methyl-1H-benzo[d]imidazole-6-yl)pyrimidin-2-yl)amino)-4-methoxyphenyl)acrylamide] | – | – | – | IC50 [1, 5]: 100 to 400 nM; IC50 [2, 6]: < 10 nM
14 | C=CC(=O)Nc1cc(Nc2ncc(OC)c(-c3cc(F)c4nc(C)n(C(C)C)c4c3)n2)c(OC)cc1N(C)CCN(C)C [Example 3, N-(2-((2-(dimethylamino)ethyl)(methyl)amino)-5-((5-methoxy-4-(4-fluoro-1-isopropyl-2-methyl-1H-benzo[d]imidazole-6-yl)pyrimidin-2-yl)amino)-4-methoxyphenyl)acrylamide] | 1 to 50 | 1 to 50 | – | –
15 | C=CC(=O)Nc1cc(Nc2nccc(-c3cc(F)c4nc(C)n(C(C)C)c4c3)n2)c(OC(F)F)cc1N(C)CCN(C)C [Example 47] | 1 to 50 | – | 400 to 1000 | IC50 [2, 6]: < 10 nM
16 | C=CC(=O)Nc1cc(Nc2nccc(-c3cc(F)c4oc(C)nc4c3)n2)c(OC)cc1N(C)CCN(C)C [Example 31, N-(2-((2-(dimethylamino)ethyl)(methyl)amino)-5-((4-(7-fluoro-2-methylbenzo[d]oxazole-5-yl)pyrimidin-2-yl)amino)-4-methoxyphenyl)acrylamide] | – | – | > 1000 | –
17 | C=CC(=O)Nc1cc(Nc2ncc(Cl)c(-c3cc(F)c4nc(C)n(C(C)C)c4c3)n2)c(OC)cc1N(C)CCN(C)C [Example 1, N-(2-((2-(dimethylamino)ethyl)(methyl)amino)-5-((5-chloro-4-(4-fluoro-1-isopropyl-2-methyl-1H-benzo[d]imidazole-6-yl)pyrimidin-2-yl)amino)-4-methoxyphenyl)acrylamide] | 1 to 50 | – | > 1000 | IC50 [2, 4]: 10 to 100 nM
18 | C=CC(=O)Nc1cc(Nc2nccc(-c3cc(F)c4nc(C)n(C(C)C)c4c3)n2)c(OC)cc1SCCN(C)C [Example 11, N-(2-(2-(dimethylamino)ethyl)(thio)-5-((4-(4-fluoro-1-isopropyl-2-methyl-1H-benzo[d]imidazole-6-yl)pyrimidin-2-yl)amino)-4-methoxyphenyl)acrylamide] | 1 to 50 | – | – | IC50 [1, 5]: 400 to 1000 nM; IC50 [2, 6]: 10 to 100 nM
19 | C=CC(=O)Nc1cc(Nc2nccc(-c3cc(F)c4nc(C)n(C(C)C)c4c3)n2)c(OC)cc1N1CCOCC1 [Example 16] | – | 1 to 50 | > 1000 | IC50 [2, 6]: 100 to 400 nM
20 | N-(2-(4-ethoxypiperidin)-1-yl)-5-((4-(4-fluoro-1-isopropyl-2-methyl-1H-benzo[d]imidazole-6-yl)pyrimidin-2-yl)amino)-4-methoxyphenyl)acrylamide [Example 14] | – | – | – | IC50 ([1]; MTS, 72 hours, read-out: A431 (WT) IC50): > 1000 nM; IC50 ([2]; MTS, 72 hours, read-out: HCC827 (Del19) IC50): 400 to 1000 nM
21 | C=CC(=O)Nc1cc(Nc2nccc(-c3cc(F)c4nc(C)n(C(C)C)c4c3)n2)c(OC)cc1N1CCC(OC)CC1 [Example 15] | – | 1 to 50 | > 1000 | IC50 [2, 6]: 100 to 400 nM
22 | COc1cc(N2CCN(C)CC2)ccc1Nc1nccc(-c2cc(F)c3nc(C)n(C(C)C)c3c2)n1 [Example 54, 4-(4-fluoro-1-isopropyl-2-methyl-1H-benzo[d]imidazole-6-yl)-N-(2-methoxy-4-(4-methylpiperazin-1-yl)phenyl)pyrimidin-2-amine] | – | – | 400 to 1000 | –
23 | C=CC(=O)Nc1cc(Nc2nccc(-c3cn(C)c4ccccc34)n2)c(OC)cc1N(C)CCN(C)C [AZD9291, reference compound] | – | – | – | IC50 [1, 5]: 100 to 400 nM; IC50 [2, 6]: 10 to 100 nM
24 | C=CC(=O)Nc1cc(Nc2nccc(-c3cc(F)c4c(cnn4C)c3)n2)c(OC)cc1N(C)CCN(C)C [Example 39, N-(2-((2-(dimethylamino)ethyl)(methyl)amino)-5-((4-(7-fluoro-1-methyl-indazole-5-yl)pyrimidin-2-yl)amino)-4-methoxyphenyl)acrylamide] | – | – | – | IC50 [1, 5]: 100 to 400 nM
25 | C=CC(=O)Nc1cc(Nc2nccc(-c3cc(F)c4nc(OC)n(C(C)C)c4c3)n2)c(OC)cc1OCCN(C)C [Example 7] | 1 to 50 | – | – | IC50 [1, 5]: > 1000 nM; IC50 [2, 6]: 10 to 100 nM
